# Assay results as given in US20250381157A1, “ANTIMICROBIAL COMPOUNDS” (priority 2022, published 2025).
# Values joined by “and” are separate entries in the source; they are usually repeats but may differ in a detail not shown here. Equal entries are not always repeated. Where two headings read alike, the source gives them in different places.
# What was measured:
# [1] = Mouse ileum C-max after single PO dose; type: in vivo
# Caco-2 cells = assay: Caco-2 cell study (permeability, efflux); type: in vitro ADME
# Text: Caco-2 cells are used as a model of the intestinal epithelial barrier.
# [2] = test system: Enterotoxigenic Escherichia coli (ETEC) (ATCC ® 35401 ™, H10407); type: in vivo, mouse; details: for Body weights (Final Day) (Mean ± SD) / Log10 CFU/g [Mean ± SD] Blood / Log10 CFU/g [Mean ± SD] Kidneys / Log10 CFU/g [Mean ± SD] Liver / Log10 CFU/g [Mean ± SD] Spleen / Kidney -Raw data on Vancomycin (32 μg/ml) plates / Liver-Raw data on Vancomycin (32 μg/ml) plates / Spleen -Raw data on Vancomycin (32 μg/ml) plates / Blood -Raw data on Vancomycin (32 μg/ml) plates - on day 7 PI: PO, twice daily(q12h), 9 days; for effect on bacterial translocation: presence of cyclophosphamide, FIG. 4; for Clinical observation (Mean Score) Hunched Posture / Clinical observation (Mean Score) Lethergy / Clinical observation (Mean Score) Rough coat / Clinical observation (Mean Score) hyperpnea: 0=absent 1=present; for Kidney -Raw data on Vancomycin (32 μg/ml) plates / Liver-Raw data on Vancomycin (32 μg/ml) plates / Spleen -Raw data on Vancomycin (32 μg/ml) plates / Blood -Raw data on Vancomycin (32 μg/ml) plates - on day 7 PI: individual animals
# Description: FIG. 3: Schematic protocol for neutropenia mouse model
# A schematic of the experimental model is depicted in FIG. 3.
# That experiment was performed in the presence of cyclophosphamide, which is known to cause febrile neutropenia due to translocation of bacteria to vital organs.
# [3] = Day (0), 5 mg/kg PO q12h 9 days
# [4] = Day (0), 50 mg/kg PO q12h 9 days
# [5] = Day (1), 5 mg/kg PO q12h 9 days
# [6] = Day (1), 50 mg/kg PO q12h 9 days
# [7] = Day (2), 5 mg/kg PO q12h 9 days
# [8] = Day (2), 50 mg/kg PO q12h 9 days
# [9] = Day (3), 5 mg/kg PO q12h 9 days
# [10] = Day (3), 50 mg/kg PO q12h 9 days
# [11] = Day (4), 5 mg/kg PO q12h 9 days
# [12] = Day (4), 50 mg/kg PO q12h 9 days
# [13] = Day (5), 5 mg/kg PO q12h 9 days
# [14] = Day (5), 50 mg/kg PO q12h 9 days
# [15] = Day (6), 5 mg/kg PO q12h 9 days
# [16] = Day (6), 50 mg/kg PO q12h 9 days
# [17] = Day (7), 5 mg/kg PO q12h 9 days
# [18] = Day (7), 50 mg/kg PO q12h 9 days
# [19] = Day (−1), 5 mg/kg PO q12h 9 days
# [20] = Day (−1), 50 mg/kg PO q12h 9 days
# [21] = Day (−2), 5 mg/kg PO q12h 9 days
# [22] = Day (−2), 50 mg/kg PO q12h 9 days
smiles,measurement,setting,value
"C#CCOCC(=O)Nc1ccc(C(=O)Nc2ccccc2N)cc1 [Compound 1, N-(2-aminophenyl)-4-{2-[(prop-2-yn-1-yl)oxy]acetamido}benzamide]",PO single 5 mg/kg mouse - Ileum C-max,[1]; PO single 5 mg/kg,0.9 µM
same,PO single 15 mg/kg mouse - Ileum C-max,[1]; PO single 15 mg/kg,2.0 µM
same,PO single 50 mg/kg mouse - Ileum C-max,[1]; PO single 50 mg/kg,7.1 µM
same,Caco-2 Permeability A-B dir.,Caco-2 cells,High
same,Caco-2 Permeability A-B dir.,Caco-2 cells; listed as compound 1,high
same,Active efflux,Caco-2 cells; Caco-2,No
same,Body weights (Final Day) (Mean ± SD),[2]; 5 mg/kg,25.2 ± 1.69
same,Log10 CFU/g [Mean ± SD] Blood,[2]; 5 mg/kg,1.9 ± 0 Log10 CFU/g
same,Log10 CFU/g [Mean ± SD] Kidneys,[2]; 5 mg/kg,2.83 ± 0.29^ns Log10 CFU/g
same,Log10 CFU/g [Mean ± SD] Liver,[2]; 5 mg/kg,2.58 ± 0.32 Log10 CFU/g
same,Log10 CFU/g [Mean ± SD] Spleen,[2]; 5 mg/kg,3.05 ± 0.3^ns Log10 CFU/g
same,effect on bacterial translocation,[2]; 5 mg/kg,little to no effect
same,Body weights (Final Day) (Mean ± SD),[2]; 50 mg/kg,26.1 ± 1.20
same,Log10 CFU/g [Mean ± SD] Blood,[2]; 50 mg/kg,BLOQ
same,Log10 CFU/g [Mean ± SD] Kidneys,[2]; 50 mg/kg,BLOQ
same,Log10 CFU/g [Mean ± SD] Liver,[2]; 50 mg/kg,BLOQ
same,Log10 CFU/g [Mean ± SD] Spleen,[2]; 50 mg/kg,BLOQ
same,effect on bacterial translocation,[2]; 50 mg/kg,inhibits it completely
same,Clinical observation (Mean Score) Hunched Posture,[2]; [3],0.0
same,Clinical observation (Mean Score) Lethergy,[2]; [3],0.0
same,Clinical observation (Mean Score) Rough coat,[2]; [3],0.0
same,Clinical observation (Mean Score) hyperpnea,[2]; [3],0.0
same,Clinical observation (Mean Score) Hunched Posture,[2]; [4],0.0
same,Clinical observation (Mean Score) Lethergy,[2]; [4],0.0
same,Clinical observation (Mean Score) Rough coat,[2]; [4],0.0
same,Clinical observation (Mean Score) hyperpnea,[2]; [4],0.0
same,Clinical observation (Mean Score) Hunched Posture,[2]; [5],0.0
same,Clinical observation (Mean Score) Lethergy,[2]; [5],0.0
same,Clinical observation (Mean Score) Rough coat,[2]; [5],0.0
same,Clinical observation (Mean Score) hyperpnea,[2]; [5],0.0
same,Clinical observation (Mean Score) Hunched Posture,[2]; [6],0.0
same,Clinical observation (Mean Score) Lethergy,[2]; [6],0.0
same,Clinical observation (Mean Score) Rough coat,[2]; [6],0.0
same,Clinical observation (Mean Score) hyperpnea,[2]; [6],0.0
same,Clinical observation (Mean Score) Hunched Posture,[2]; [7],0.0
same,Clinical observation (Mean Score) Lethergy,[2]; [7],0.0
same,Clinical observation (Mean Score) Rough coat,[2]; [7],0.0
same,Clinical observation (Mean Score) hyperpnea,[2]; [7],0.0
same,Clinical observation (Mean Score) Hunched Posture,[2]; [8],0.0
same,Clinical observation (Mean Score) Lethergy,[2]; [8],0.0
same,Clinical observation (Mean Score) Rough coat,[2]; [8],0.0
same,Clinical observation (Mean Score) hyperpnea,[2]; [8],0.0
same,Clinical observation (Mean Score) Hunched Posture,[2]; [9],0.0
same,Clinical observation (Mean Score) Lethergy,[2]; [9],0.0
same,Clinical observation (Mean Score) Rough coat,[2]; [9],0.0
same,Clinical observation (Mean Score) hyperpnea,[2]; [9],0.0
same,Clinical observation (Mean Score) Hunched Posture,[2]; [10],0.0
same,Clinical observation (Mean Score) Lethergy,[2]; [10],0.0
same,Clinical observation (Mean Score) Rough coat,[2]; [10],0.0
same,Clinical observation (Mean Score) hyperpnea,[2]; [10],0.0
same,Clinical observation (Mean Score) Hunched Posture,[2]; [11],0.0
same,Clinical observation (Mean Score) Lethergy,[2]; [11],0.0
same,Clinical observation (Mean Score) Rough coat,[2]; [11],0.0
same,Clinical observation (Mean Score) hyperpnea,[2]; [11],0.0
same,Clinical observation (Mean Score) Hunched Posture,[2]; [12],0.0
same,Clinical observation (Mean Score) Lethergy,[2]; [12],0.0
same,Clinical observation (Mean Score) Rough coat,[2]; [12],0.0
same,Clinical observation (Mean Score) hyperpnea,[2]; [12],0.0
same,Clinical observation (Mean Score) Hunched Posture,[2]; [13],0.0
same,Clinical observation (Mean Score) Lethergy,[2]; [13],0.1
same,Clinical observation (Mean Score) Rough coat,[2]; [13],0.5
same,Clinical observation (Mean Score) hyperpnea,[2]; [13],0.0
same,Clinical observation (Mean Score) Hunched Posture,[2]; [14],0.0
same,Clinical observation (Mean Score) Lethergy,[2]; [14],0.0
same,Clinical observation (Mean Score) Rough coat,[2]; [14],0.0
same,Clinical observation (Mean Score) hyperpnea,[2]; [14],0.0
same,Clinical observation (Mean Score) Hunched Posture,[2]; [15],0.0
same,Clinical observation (Mean Score) Lethergy,[2]; [15],0.4
same,Clinical observation (Mean Score) Rough coat,[2]; [15],0.7
same,Clinical observation (Mean Score) hyperpnea,[2]; [15],0.0
same,Clinical observation (Mean Score) Hunched Posture,[2]; [16],0.0
same,Clinical observation (Mean Score) Lethergy,[2]; [16],0.0
same,Clinical observation (Mean Score) Rough coat,[2]; [16],0.4
same,Clinical observation (Mean Score) hyperpnea,[2]; [16],0.0
same,Clinical observation (Mean Score) Hunched Posture,[2]; [17],0.0
same,Clinical observation (Mean Score) Lethergy,[2]; [17],0.5
same,Clinical observation (Mean Score) Rough coat,[2]; [17],1.0
same,Clinical observation (Mean Score) hyperpnea,[2]; [17],0.0
same,Clinical observation (Mean Score) Hunched Posture,[2]; [18],0.0
same,Clinical observation (Mean Score) Lethergy,[2]; [18],0.0
same,Clinical observation (Mean Score) Rough coat,[2]; [18],0.4
same,Clinical observation (Mean Score) hyperpnea,[2]; [18],0.0
same,Clinical observation (Mean Score) Hunched Posture,[2]; [19],0.0
same,Clinical observation (Mean Score) Lethergy,[2]; [19],0.0
same,Clinical observation (Mean Score) Rough coat,[2]; [19],0.0
same,Clinical observation (Mean Score) hyperpnea,[2]; [19],0.0
same,Clinical observation (Mean Score) Hunched Posture,[2]; [20],0.0
same,Clinical observation (Mean Score) Lethergy,[2]; [20],0.0
same,Clinical observation (Mean Score) Rough coat,[2]; [20],0.0
same,Clinical observation (Mean Score) hyperpnea,[2]; [20],0.0
same,Clinical observation (Mean Score) Hunched Posture,[2]; [21],0.0
same,Clinical observation (Mean Score) Lethergy,[2]; [21],0.0
same,Clinical observation (Mean Score) Rough coat,[2]; [21],0.0
same,Clinical observation (Mean Score) hyperpnea,[2]; [21],0.0
same,Clinical observation (Mean Score) Hunched Posture,[2]; [22],0.0
same,Clinical observation (Mean Score) Lethergy,[2]; [22],0.0
same,Clinical observation (Mean Score) hyperpnea,[2]; [22],0.0
same,Bacteria in treated animals,"[2]; day 7, compound 1 at 50 mg/kg",BLOQ
same,antibacterial effect in liver and blood compared to vehicle controls,"[2]; day 7, p<0.05",significant dose dependent antibacterial effect
same,Kidney -Raw data on Vancomycin (32 μg/ml) plates,[2]; 5 mg/kg,2.73 Log10 CFU/g and 3.23 Log10 CFU/g and 2.66 Log10 CFU/g and 2.94 Log10 CFU/g and 3.34 Log10 CFU/g and 2.68 Log10 CFU/g and 2.59 Log10 CFU/g and 2.54 Log10 CFU/g and 2.75 Log10 CFU/g and BLOQ
same,Liver-Raw data on Vancomycin (32 μg/ml) plates,[2]; 5 mg/kg,2.67 Log10 CFU/g and 2.41 Log10 CFU/g (2×) and 3.42 Log10 CFU/g and 2.33 Log10 CFU/g and 2.39 Log10 CFU/g (2×) and 2.53 Log10 CFU/g and 2.61 Log10 CFU/g and 2.57 Log10 CFU/g
same,Spleen -Raw data on Vancomycin (32 μg/ml) plates,[2]; 5 mg/kg,3.04 Log10 CFU/g and 3.00 Log10 CFU/g and 3.51 Log10 CFU/g and 2.62 Log10 CFU/g and BLOQ (4×) and 2.91 Log10 CFU/g and 3.17 Log10 CFU/g
same,Kidney -Raw data on Vancomycin (32 μg/ml) plates,[2]; 50 mg/kg,BLOQ
same,Liver-Raw data on Vancomycin (32 μg/ml) plates,[2]; 50 mg/kg,BLOQ
same,Spleen -Raw data on Vancomycin (32 μg/ml) plates,[2]; 50 mg/kg,BLOQ
same,Blood -Raw data on Vancomycin (32 μg/ml) plates - on day 7 PI,[2]; 5 mg/kg,1.90 Log10 CFU/g
same,Blood -Raw data on Vancomycin (32 μg/ml) plates - on day 7 PI,"[2]; 5 mg/kg, 5 mg/kg",BLOQ
same,Blood -Raw data on Vancomycin (32 μg/ml) plates - on day 7 PI,[2]; 50 mg/kg,BLOQ
same,clinical condition of animals,[2]; treated groups,apparently normal
